Test results published in ChEMBL document CHEMBL1201862, “PubChem BioAssay data set” (2004).
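All cell lines were grown in 96-well plates and treated with compound for 48 hours. GI50 marks 50% less growth.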 Active and inactive are the calls of the source. Cut-off read from the data, not from the text of the source: active = GI50 up to about 1.1 µM and inactive = higher.

Key:
Assay in all cases: NCI anticancer screen, dose series, 48 h
[1] = tested on: SW-620
[2] = tested on: NCI/ADR-RES
[3] = tested on: TK-10
[4] = tested on: HL-60
[5] = tested on: COLO 205
[6] = tested on: Malme-3M
[7] = tested on: EKVX
[8] = tested on: MDA-MB-435
[9] = tested on: SF-295
[10] = tested on: CCRF-CEM
[11] = tested on: HOP-92
[12] = tested on: KM12
[13] = tested on: SK-OV-3
[14] = tested on: MDA-N
[15] = tested on: 786-0
[16] = tested on: OVCAR-4
[17] = tested on: SNB-19
[18] = tested on: OVCAR-5
[19] = tested on: HCC 2998
[20] = tested on: HCT-116
[21] = tested on: MOLT-4
[22] = tested on: SNB-75
[23] = tested on: UACC-62
[24] = tested on: SF-539
[25] = tested on: U-251
[26] = tested on: CAKI-1
[27] = tested on: NCI-H522
[28] = tested on: MCF7
[29] = tested on: LOX IMVI
[30] = tested on: HOP-62
[31] = tested on: NCI-H226
[32] = tested on: OVCAR-3
[33] = tested on: Hs-578T
[34] = tested on: ACHN
[35] = tested on: SK-MEL-5
[36] = tested on: PC-3
[37] = tested on: SN12C
[38] = tested on: T47D
[39] = tested on: DU-145
[40] = tested on: IGROV-1
[41] = tested on: NCI-H23
[42] = tested on: RPMI-8226
[43] = tested on: MDA-MB-231
[44] = tested on: HCT-15
[45] = tested on: RXF 393
[46] = tested on: UACC-257
[47] = tested on: M14
[48] = tested on: A549
[49] = tested on: NCI-H460
[50] = tested on: SF-268
[51] = tested on: SK-MEL-28
[52] = tested on: SR
[53] = tested on: OVCAR-8
[54] = tested on: A498
[55] = tested on: K562
[56] = tested on: HT-29

SMILES: COc1ccc(NC(=O)CSc2nc(C)nc3c2sc(=S)n3-c2ccccc2)cc1
- GI50 [1]: > 10 µM (inactive)
- GI50 [2]: 8.51 µM (inactive)
- GI50 [3]: > 10 µM (inactive)
- GI50 [4]: > 10 µM (inactive)
- GI50 [5]: 7.28 µM (inactive)
- GI50 [6]: > 10 µM (inactive)
- GI50 [7]: 7.67 µM (inactive)
- GI50 [8]: 7.91 µM (inactive)
- GI50 [9]: 7.26 µM (inactive)
- GI50 [10]: > 10 µM (inactive)
- GI50 [11]: 2.11 µM (inactive)
- GI50 [12]: > 10 µM (inactive)
- GI50 [13]: > 10 µM (inactive)
- GI50 [14]: > 10 µM (inactive)
- GI50 [15]: 3.39 µM (inactive)
- GI50 [16]: 3.18 µM (inactive)
- GI50 [17]: > 10 µM (inactive)
- GI50 [18]: > 10 µM (inactive)
- GI50 [19]: > 10 µM (inactive)
- GI50 [20]: 8.28 µM (inactive)
- GI50 [21]: > 10 µM (inactive)
- GI50 [22]: 2.97 µM (inactive)
- GI50 [23]: > 10 µM (inactive)
- GI50 [24]: 2.43 µM (inactive)
- GI50 [25]: > 10 µM (inactive)
- GI50 [26]: 7.46 µM (inactive)
- GI50 [27]: > 10 µM (inactive)
- GI50 [28]: 8.11 µM (inactive)
- GI50 [29]: > 10 µM (inactive)
- GI50 [30]: 5.27 µM (inactive)
- GI50 [31]: 6.85 µM (inactive)
- GI50 [32]: 6.15 µM (inactive)
- GI50 [33]: 3.75 µM (inactive)
- GI50 [34]: 4.68 µM (inactive)
- GI50 [35]: > 10 µM (inactive)
- GI50 [36]: > 10 µM (inactive)
- GI50 [37]: > 10 µM (inactive)
- GI50 [38]: > 10 µM (inactive)
- GI50 [39]: > 10 µM (inactive)
- GI50 [40]: > 10 µM (inactive)
- GI50 [41]: > 10 µM (inactive)
- GI50 [42]: > 10 µM (inactive)
- GI50 [43]: > 10 µM (inactive)
- GI50 [44]: > 10 µM
- GI50 [45]: > 10 µM (inactive)
- GI50 [46]: > 10 µM (inactive)
- GI50 [47]: 8.07 µM (inactive)
- GI50 [48]: > 10 µM (inactive)
- GI50 [49]: 3.73 µM (inactive)
- GI50 [50]: > 10 µM (inactive)
- GI50 [51]: > 10 µM (inactive)
- GI50 [52]: > 10 µM (inactive)
- GI50 [53]: > 10 µM (inactive)
- GI50 [54]: 5 µM (inactive)
- GI50 [55]: > 10 µM (inactive)
- GI50 [56]: > 10 µM (inactive)
